Data published in PubChem BioAssay AID489035 (Sanford-Burnham Center for Chemical Genomics, 2010).
Activity calls are given as the source filed them. The rule behind the calls is not given here.

Each compound was assayed on Jurkat NF-kB reporter, TCR-induced, luciferase luminescence (assay: inhibitors of TCR-driven NF-kB activation, dose response, Jurkat cells, luminescence (AID 489035)).
For `CCn1c2ccccc2c2cc(Nc3cc(C)nc4ncnn34)ccc21`, the IC50 was > 80 µM (inactive). In the case of `CCOc1ccc2c(c1)OC(c1ccc(C)cc1)(C(F)(F)F)NC2=O` (configuration not stated), the IC50 is reported as > 80 µM (inactive). For `COc1ccc(OC)c(Nc2cc(-c3ccccc3)nc(N)n2)c1`, the IC50 was 26.9 µM (inactive). Compound `COc1ccc(N/N=C/c2c(C(=O)O)ccc3ccccc23)cc1` has an IC50 of 16.4 µM. For `O=C(Cc1ccc(-c2ccccc2)cc1)NCc1ccccc1`, the IC50 was less than 0.16 µM. With `Nc1nc2n[nH]nc2c(=O)[nH]1` the IC50 was > 80 µM (inactive). For `CCN(CC)c1ccc(-c2nn3c(-c4ccccc4OC)nnc3s2)cc1`, the IC50 was 20.4 µM (inactive). For `CC1(C)Cc2nc3sc4c(=O)n(CC(=O)NCc5ccccc5)cnc4c3cc2CO1`, the IC50 was > 80 µM (inactive). Compound `Cc1ccc(-c2nc(-c3ccccn3)no2)cc1` has an IC50 of 2.34 µM. Compound `Cc1ccc(C(=O)Nc2cc3ccccc3oc2=O)cc1` has an IC50 of 0.32 µM. For `CCCCCCCOc1ccc(OC(=O)c2ccncc2)cc1`, the IC50 was > 80 µM (inactive). `CCOC(=O)c1[nH]c(C=O)c(C(=O)OCC)c1C` was tested, and the IC50 was > 80 µM (inactive). With `CCCOc1ccc(/C=N/Nc2cc(N3CCOCC3)ncn2)c(O)c1` the IC50 was 10 µM. `O=C(Nc1nc(-c2ccccc2)cs1)c1ccc(N2CCOCC2)c([N+](=O)[O-])c1` was tested, and the IC50 was > 80 µM (inactive). `Cc1cccc(N(C)S(=O)(=O)c2ccc(-c3cnc(C4CC4)o3)cc2)c1` was tested, and the IC50 was 23.8 µM (inactive). For `O=C(NNc1ccnc2cc(Cl)ccc12)C1CCCCC1`, the IC50 was > 80 µM (inactive). `COc1ccc(/C=N/NC(=O)c2[nH]c3ccc(Br)cc3c2-c2ccccc2)cc1` gave an IC50 of 1.64 µM. Work on `O=C(O)c1ccc(-c2ccc(-c3ccccc3)cc2)s1` yielded an IC50 of 1.39 µM. With `Cc1cc(NC(=O)CSc2nc3ccccc3c(=O)n2C2CCCC2)no1` the IC50 was > 80 µM (inactive). `CCCC(=O)NC(c1ccccc1Cl)c1ccc2cccnc2c1O` (configuration not stated) was tested, and the IC50 was 2.81 µM. `O=c1cc(-c2cccc(F)c2)[nH]c2ccccc12` was tested, and the IC50 was > 80 µM (inactive). Compound `COc1cc(/C=C/C(=O)c2ccc([N+](=O)[O-])o2)ccc1O` has an IC50 of 1.86 µM. `CNC[C@H](CC1CCCCC1)NC[C@H](Cc1ccccc1)NCCC12CC3CC(CC(C3)C1)C2` showed an IC50 of 2.42 µM. For `CC(C)(C)OC(=O)NCCCCCc1cn(CC(=O)NCCCCCCCCCCC(=O)N2CCN(C(=O)OC(C)(C)C)CC2)nn1`, the IC50 was > 80 µM (inactive). `COc1ccc(C[C@H](N)C(=O)N[C@H]2[C@@H](O)[C@H](n3cnc4c(N(C)C)ncnc43)O[C@@H]2CO)cc1` was tested, and the IC50 was 0.96 µM. `COc1ccccc1C(=O)Nc1nc2ccccc2s1` showed an IC50 of 0.77 µM. For `N=c1ccn(CC(=O)c2ccc(-c3ccccc3)cc2)cc1`, the IC50 was 54.5 µM (inactive). With `COC(=O)c1c(NC(=O)c2ccc([N+](=O)[O-])o2)sc2c1CCN(C(C)C)C2` the IC50 was 6.76 µM. In the case of `COc1cccc(C2CC(=O)Nc3cc4c(cc32)CCC4)c1` (configuration not stated), the IC50 is reported as > 80 µM (inactive). Compound `COc1cc(/C=C/c2ccc3cccc(O)c3n2)cc(OC)c1OC` has an IC50 of 1.59 µM. Work on `C=CCn1c(C)cc(C2=NNC(=NCC)SC2)c1C` yielded an IC50 of less than 0.16 µM. With `CC1=C([N+](=O)[O-])C(c2ccccc2)C2=C(N1)c1ccccc1C2=O` (configuration not stated) the IC50 was 30.3 µM (inactive). `COc1cc(NS(C)(=O)=O)ccc1Nc1c2ccccc2nc2ccccc12` gave an IC50 of 9.5 µM. With `Cc1nc2c(=O)n(C)c(=O)nc-2n(C)n1` the IC50 was 0.47 µM. With `CCOC(=O)c1[nH]c(C)c(C(=O)Nc2ccc(C)cc2C)c1C` the IC50 was > 80 µM (inactive). `Cc1cnc(NC(=O)c2ccc3c(c2)OCCO3)s1` was tested, and the IC50 was 1 µM. Work on `Cc1ccc(C(=O)O/N=C(\N)c2ccccn2)c(C)c1` yielded an IC50 of 0.42 µM.
